Test results from the supplement of paper PMC10307832.

Assays:
Test in all cases: relative viability (nuclei count vs DMSO), 5 days (fraction); higher = more cells survive
[1] = compound: O[C@H]1CC[C@H](Nc2ncc3nc(Nc4c(F)cc(F)cc4F)n([C@H]4CCOC4)c3n2)CC1 [Tanzisertib] + Cc1cc(Nc2cc(N3CCN(C)CC3)nc(Sc3ccc(NC(=O)C4CC4)cc3)n2)n[nH]1 [Tozasertib] (partner 0.1 µM)
Summary of the method: (§1)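 Relative viability was taken as the ratio of nuclei in treated wells to nuclei in vehicle wells. Lung cancer cell lines in 1536-well plates received compounds by pin tool one day after seeding, either one drug alone or a fixed anchor-drug dose plus five library-drug doses (not always all listed) in √10 steps. Nuclei were counted on 4× images after 5 days of treatment, and values are medians of duplicate plates.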

[2] = compound: C1CNCCC1C2=CC(=NN2)C3=CC=NC=C3 + Nc1nc2[nH]cc(CCc3ccc(C(=O)N[C@@H](CCC(=O)O)C(=O)O)cc3)c2c(=O)[nH]1 [Pemetrexed] (partner 0.2 µM)
Summary of the method: as §1

[3] = compound: O[C@H]1CC[C@H](Nc2ncc3nc(Nc4c(F)cc(F)cc4F)n([C@H]4CCOC4)c3n2)CC1 [Tanzisertib] + O=C(c1cc(Cc2n[nH]c(=O)c3ccccc23)ccc1F)N1CCN(C(=O)C2CC2)CC1 [Olaparib] (partner 8 µM)
Summary of the method: as §1

[4] = compound: C1CNCCC1C2=CC(=NN2)C3=CC=NC=C3 + O=C(CCCCCCC(=O)Nc1ccccc1)NO [Vorinostat] (partner 1 µM)
Summary of the method: as §1

NCI-H2347 was tested, and the relative viability ([1]; first compound 0.08 µM) was 0.569, the relative viability ([1]; first compound 0.8 µM) was 0.664 and the relative viability ([1]; first compound 2.53 µM) was 0.682. It also gave a relative viability ([1]; first compound 8 µM) of 0.365, a relative viability ([2]; first compound 0.08 µM) of 0.441 and a relative viability ([2]; first compound 0.8 µM) of 0.409. It also gave a relative viability ([2]; first compound 2.53 µM) of 0.422, a relative viability ([2]; first compound 8 µM) of 0.422 and a relative viability ([3]; first compound 0.08 µM) of 0.628. For the same cell line, the relative viability ([3]; first compound 0.253 µM) was 0.626, the relative viability ([3]; first compound 0.8 µM) was 0.593 and the relative viability ([3]; first compound 2.53 µM) was 0.677. It also gave a relative viability ([3]; first compound 8 µM) of 0.766, a relative viability ([4]; first compound 0.08 µM) of 0.541 and a relative viability ([4]; first compound 0.8 µM) of 0.486. The relative viability ([4]; first compound 2.53 µM) was 0.573 and the relative viability ([4]; first compound 8 µM) was 0.627.
HCC-44 was tested, and the relative viability ([1]; first compound 0.08 µM) was 1.05, the relative viability ([1]; first compound 0.253 µM) was 0.913 and the relative viability ([1]; first compound 0.8 µM) was 1.04. The relative viability ([1]; first compound 2.53 µM) was 0.976, the relative viability ([1]; first compound 8 µM) was 1.02 and the relative viability ([2]; first compound 0.08 µM) was 0.678. For the same cell line, the relative viability ([2]; first compound 0.8 µM) was 0.659, the relative viability ([2]; first compound 2.53 µM) was 0.64 and the relative viability ([2]; first compound 8 µM) was 0.613. It also gave a relative viability ([3]; first compound 0.08 µM) of 0.99, a relative viability ([3]; first compound 0.253 µM) of 1.08 and a relative viability ([3]; first compound 0.8 µM) of 0.965. The relative viability ([3]; first compound 2.53 µM) was 1.03, the relative viability ([3]; first compound 8 µM) was 1.11 and the relative viability ([4]; first compound 0.08 µM) was 1.11. It also gave a relative viability ([4]; first compound 0.8 µM) of 1.2, a relative viability ([4]; first compound 2.53 µM) of 0.998 and a relative viability ([4]; first compound 8 µM) of 1.11.
In the case of HCC-78, the relative viability ([1]; first compound 0.08 µM) is reported as 0.493, the relative viability ([1]; first compound 0.253 µM) is reported as 0.392 and the relative viability ([1]; first compound 0.8 µM) is reported as 0.422. It also gave a relative viability ([1]; first compound 2.53 µM) of 0.389, a relative viability ([1]; first compound 8 µM) of 0.329 and a relative viability ([2]; first compound 0.08 µM) of 0.901. For the same cell line, the relative viability ([2]; first compound 2.53 µM) was 0.925, the relative viability ([2]; first compound 8 µM) was 0.885 and the relative viability ([3]; first compound 0.08 µM) was 0.922. It also gave a relative viability ([3]; first compound 0.253 µM) of 0.73, a relative viability ([3]; first compound 0.8 µM) of 0.854 and a relative viability ([3]; first compound 2.53 µM) of 0.852. The relative viability ([3]; first compound 8 µM) was 0.622, the relative viability ([4]; first compound 0.08 µM) was 0.404 and the relative viability ([4]; first compound 2.53 µM) was 0.441. The relative viability ([4]; first compound 8 µM) was 0.475.
In the case of COR-L23, the relative viability ([1]; first compound 0.08 µM) is reported as 0.201, the relative viability ([1]; first compound 0.253 µM) is reported as 0.228 and the relative viability ([1]; first compound 0.8 µM) is reported as 0.184. For the same cell line, the relative viability ([1]; first compound 2.53 µM) was 0.189, the relative viability ([1]; first compound 8 µM) was 0.121 and the relative viability ([2]; first compound 0.08 µM) was 0.192. For the same cell line, the relative viability ([2]; first compound 0.8 µM) was 0.212, the relative viability ([2]; first compound 2.53 µM) was 0.193 and the relative viability ([2]; first compound 8 µM) was 0.192. It also gave a relative viability ([3]; first compound 0.08 µM) of 0.339, a relative viability ([3]; first compound 0.253 µM) of 0.353 and a relative viability ([3]; first compound 0.8 µM) of 0.347. The relative viability ([3]; first compound 2.53 µM) was 0.417, the relative viability ([3]; first compound 8 µM) was 0.353 and the relative viability ([4]; first compound 0.08 µM) was 0.455. It also gave a relative viability ([4]; first compound 0.8 µM) of 0.56, a relative viability ([4]; first compound 2.53 µM) of 0.631 and a relative viability ([4]; first compound 8 µM) of 0.447.
Cell Line NCI-H1993 has a relative viability ([1]; first compound 0.08 µM) of 0.614, a relative viability ([1]; first compound 0.253 µM) of 0.593 and a relative viability ([1]; first compound 0.8 µM) of 0.592. The relative viability ([1]; first compound 2.53 µM) was 0.617, the relative viability ([1]; first compound 8 µM) was 0.548 and the relative viability ([2]; first compound 0.08 µM) was 0.607. The relative viability ([2]; first compound 0.8 µM) was 0.342, the relative viability ([2]; first compound 2.53 µM) was 0.535 and the relative viability ([2]; first compound 8 µM) was 0.689. The relative viability ([3]; first compound 0.08 µM) was 0.985, the relative viability ([3]; first compound 0.253 µM) was 0.928 and the relative viability ([3]; first compound 0.8 µM) was 1.17. It also gave a relative viability ([3]; first compound 2.53 µM) of 1.04, a relative viability ([3]; first compound 8 µM) of 0.766 and a relative viability ([4]; first compound 0.08 µM) of 0.883. It also gave a relative viability ([4]; first compound 0.8 µM) of 0.722, a relative viability ([4]; first compound 2.53 µM) of 0.767 and a relative viability ([4]; first compound 8 µM) of 1.03.
Cell Line NCI-H2405 has a relative viability ([1]; first compound 0.08 µM) of 0.784, a relative viability ([1]; first compound 0.253 µM) of 0.744 and a relative viability ([1]; first compound 0.8 µM) of 0.844. For the same cell line, the relative viability ([1]; first compound 2.53 µM) was 0.823, the relative viability ([1]; first compound 8 µM) was 0.73 and the relative viability ([2]; first compound 0.08 µM) was 1.05. It also gave a relative viability ([2]; first compound 0.8 µM) of 1.1, a relative viability ([2]; first compound 2.53 µM) of 1.11 and a relative viability ([2]; first compound 8 µM) of 1. The relative viability ([3]; first compound 0.08 µM) was 0.924, the relative viability ([3]; first compound 0.253 µM) was 0.902 and the relative viability ([3]; first compound 0.8 µM) was 0.869. It also gave a relative viability ([3]; first compound 2.53 µM) of 1.03, a relative viability ([3]; first compound 8 µM) of 0.869 and a relative viability ([4]; first compound 0.08 µM) of 1.04. For the same cell line, the relative viability ([4]; first compound 0.8 µM) was 0.993, the relative viability ([4]; first compound 2.53 µM) was 1.06 and the relative viability ([4]; first compound 8 µM) was 0.901.
For NCI-H2126, the relative viability ([1]; first compound 0.08 µM) was 0.91, the relative viability ([1]; first compound 0.253 µM) was 0.872 and the relative viability ([1]; first compound 0.8 µM) was 0.85. It also gave a relative viability ([1]; first compound 2.53 µM) of 0.813, a relative viability ([1]; first compound 8 µM) of 0.859 and a relative viability ([2]; first compound 0.08 µM) of 0.643. For the same cell line, the relative viability ([2]; first compound 0.8 µM) was 0.625, the relative viability ([2]; first compound 2.53 µM) was 0.694 and the relative viability ([2]; first compound 8 µM) was 0.728. The relative viability ([3]; first compound 0.08 µM) was 0.913, the relative viability ([3]; first compound 0.253 µM) was 0.919 and the relative viability ([3]; first compound 0.8 µM) was 0.987. For the same cell line, the relative viability ([3]; first compound 2.53 µM) was 0.873, the relative viability ([3]; first compound 8 µM) was 0.938 and the relative viability ([4]; first compound 0.08 µM) was 0.79. It also gave a relative viability ([4]; first compound 0.8 µM) of 0.712, a relative viability ([4]; first compound 2.53 µM) of 0.778 and a relative viability ([4]; first compound 8 µM) of 0.797.
NCI-H1944 gave a relative viability ([1]; first compound 0.08 µM) of 0.289, a relative viability ([1]; first compound 0.253 µM) of 0.25 and a relative viability ([1]; first compound 0.8 µM) of 0.237. For the same cell line, the relative viability ([1]; first compound 2.53 µM) was 0.223, the relative viability ([1]; first compound 8 µM) was 0.242 and the relative viability ([2]; first compound 0.08 µM) was 0.564. It also gave a relative viability ([2]; first compound 0.8 µM) of 0.595, a relative viability ([2]; first compound 2.53 µM) of 0.67 and a relative viability ([2]; first compound 8 µM) of 0.557. It also gave a relative viability ([3]; first compound 0.08 µM) of 0.462, a relative viability ([3]; first compound 0.253 µM) of 0.412 and a relative viability ([3]; first compound 0.8 µM) of 0.377. For the same cell line, the relative viability ([3]; first compound 2.53 µM) was 0.44, the relative viability ([3]; first compound 8 µM) was 0.385 and the relative viability ([4]; first compound 0.08 µM) was 0.435. It also gave a relative viability ([4]; first compound 0.8 µM) of 0.555, a relative viability ([4]; first compound 2.53 µM) of 0.603 and a relative viability ([4]; first compound 8 µM) of 0.522.
With NCI-H2342 the relative viability ([1]; first compound 0.08 µM) was 0.584, the relative viability ([1]; first compound 0.253 µM) was 0.481 and the relative viability ([1]; first compound 0.8 µM) was 0.63. It also gave a relative viability ([1]; first compound 2.53 µM) of 0.523, a relative viability ([1]; first compound 8 µM) of 0.581 and a relative viability ([2]; first compound 0.08 µM) of 0.725. It also gave a relative viability ([2]; first compound 0.8 µM) of 0.711, a relative viability ([2]; first compound 2.53 µM) of 0.759 and a relative viability ([2]; first compound 8 µM) of 0.787. It also gave a relative viability ([3]; first compound 0.08 µM) of 0.572, a relative viability ([3]; first compound 0.253 µM) of 0.423 and a relative viability ([3]; first compound 0.8 µM) of 0.483. For the same cell line, the relative viability ([3]; first compound 2.53 µM) was 0.485, the relative viability ([3]; first compound 8 µM) was 0.439 and the relative viability ([4]; first compound 0.08 µM) was 0.706. For the same cell line, the relative viability ([4]; first compound 0.8 µM) was 0.71, the relative viability ([4]; first compound 2.53 µM) was 0.774 and the relative viability ([4]; first compound 8 µM) was 0.809.
